Source: patent publication US12071404B2, “Aza (indole)-, benzothiophene-, and benzofuran-3-sulfonamides” (UCB Pharma GmbH, priority 2016, dated 2024)

Tests used:
GPR17 [1] = biological target: T1, GPR17 (Homo sapiens, UniProt Q13304); experiment: Calcium mobilization functional assay (GPR17 Ca2+ assay); format: cell-based; parameters: host or cells: Flp-In T-REx CHO; settings: CHO hGPR17 cells, inhibition of 50 nM MDL29,951, Calcium 5 dye, FLIPR; read-out: Ca2+ assay pIC50 (converted)
Method in brief: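 Flp-In T-REx CHO cells stably expressing human GPR17, doxycycline-induced (1 μg/mL, 16-20 h), loaded 60 min with Calcium 5 dye. Inhibition by varying test-compound concentrations of the 50 nM MDL29,951 agonist response was read by fluorescence over time at room temperature. pIC50 came from 4-parameter logistic fitting.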

GPR17 [2] = biological target: T1, GPR17; experiment: cAMP accumulation functional assay (HTRF, Schild analysis); format: cell-based; parameters: host or cells: Flp-In T-REx CHO; settings: CHO hGPR17 cells, Schild analysis vs MDL29,951, 5 μM forskolin, read-out: cAMP assay pA2 (converted)
Method in brief: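 CHO Flp-In T-REx cells with doxycycline-induced human GPR17 were preincubated 30 min at room temperature in HBSS-HEPES pH 7.4 with antagonist. cAMP was then measured by HTRF after 60 min. MDL29,951 pEC50 shifts gave dose ratios, and Schild analysis gave pA2.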

T1 sequence (Q13304 whole entry): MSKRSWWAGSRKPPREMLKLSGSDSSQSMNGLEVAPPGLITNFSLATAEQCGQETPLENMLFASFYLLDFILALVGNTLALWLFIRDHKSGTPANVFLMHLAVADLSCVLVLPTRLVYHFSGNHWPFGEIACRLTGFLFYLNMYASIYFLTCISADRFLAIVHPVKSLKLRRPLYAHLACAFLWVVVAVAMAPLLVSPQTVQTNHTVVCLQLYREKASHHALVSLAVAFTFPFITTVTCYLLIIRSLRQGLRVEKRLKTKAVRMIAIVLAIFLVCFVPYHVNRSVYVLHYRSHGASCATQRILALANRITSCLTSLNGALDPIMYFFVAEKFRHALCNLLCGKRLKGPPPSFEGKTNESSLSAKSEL

Structure (SMILES) | IC50 (GPR17 [1]) [nM] | Kb (GPR17 [2]) [nM]
N#Cc1ccc(NS(=O)(=O)c2c[nH]c3c4c(ccc23)CCC4)c(F)c1 [Compound I-150, N-(4-cyano-2-fluorophenyl)-1,6,7,8-tetrahydrocyclopenta[g]indole-3-sulfonamide] | 3.16 to 31.6 | < 3.16
O=S(=O)(Nc1cccc2nsnc12)c1c[nH]c2c1ccc1ccccc12 [Compound I-155, N-(2,1,3-benzothiadiazol-4-yl)-1H-benzo[g]indole-3-sulfonamide] | 3.16 to 31.6 | < 3.16
N#Cc1ccc(NS(=O)(=O)c2c[nH]c3c2ccc2ccccc23)cc1 [Compound I-159, N-(4-cyanophenyl)-1H-benzo[g]indole-3-sulfonamide] | 3.16 to 31.6 | 3.16 to 31.6
O=S(=O)(Nc1cc2nsnc2cc1F)c1c[nH]c2cc(Cl)ccc12 [Compound I-162, 6-chloro-N-(6-fluoro-2,1,3-benzothiadiazol-5-yl)-1H-indole-3-sulfonamide] | < 3.16 | < 3.16
Cc1ccc2c(S(=O)(=O)Nc3ccc(Br)cc3F)c[nH]c2c1 [Compound I-173, N-(4-bromo-2-fluorophenyl)-6-methyl-1H-indole-3-sulfonamide] | 3.16 to 31.6 | 3.16 to 31.6
N#Cc1ccc(NS(=O)(=O)c2c[nH]c3nc(Br)ccc23)c(F)c1 [Compound I-177, 6-bromo-N-(4-cyano-2-fluorophenyl)-1H-pyrrolo[2,3-b]pyridine-3-sulfonamide] | < 3.16 | < 3.16
N#Cc1ccc(NS(=O)(=O)c2c[nH]c3nc(Cl)ccc23)cc1 [Compound I-178, 6-chloro-N-(4-cyanophenyl)-1H-pyrrolo[2,3-b]pyridine-3-sulfonamide] | 3.16 to 31.6 | 3.16 to 31.6
O=S(=O)(Nc1ccc2nsnc2c1)c1c[nH]c2nc(Cl)ccc12 [Compound I-179, N-(2,1,3-benzothiadiazol-5-yl)-6-chloro-1H-pyrrolo[2,3-b]pyridine-3-sulfonamide] | < 3.16 | 3.16 to 31.6
N#Cc1ccc(NS(=O)(=O)c2c[nH]c3cc(Cl)ccc23)cc1Cl [Compound I-181, 6-chloro-N-(3-chloro-4-cyanophenyl)-1H-indole-3-sulfonamide] | 3.16 to 31.6 | 3.16 to 31.6
O=S(=O)(Nc1ccc2nsnc2c1)c1c[nH]c2cc(Br)ccc12 [Compound I-183, N-(2,1,3-benzothiadiazol-5-yl)-6-bromo-1H-indole-3-sulfonamide] | < 3.16 | < 3.16
O=S(=O)(Nc1cccc2nsnc12)c1c[nH]c2cc(C(F)(F)F)ccc12 [Compound I-186, N-(2,1,3-benzothiadiazol-4-yl)-6-(trifluoromethyl)-1H-indole-3-sulfonamide] | 3.16 to 31.6 | 3.16 to 31.6
O=S(=O)(Nc1ncc(Cl)cc1F)c1c[nH]c2c1ccc1ccccc12 [Compound I-191, N-(5-chloro-3-fluoropyridin-2-yl)-1H-benzo[g]indole-3-sulfonamide] | 3.16 to 31.6 | < 3.16
O=S(=O)(Nc1cc2nsnc2cc1F)c1c[nH]c2cc(Br)ccc12 [Compound I-193, 6-bromo-N-(6-fluoro-2,1,3-benzothiadiazol-5-yl)-1H-indole-3-sulfonamide] | < 3.16 | < 3.16
COc1cc(CC#N)cnc1NS(=O)(=O)c1c[nH]c2cc(Cl)ccc12 [Compound I-194, 6-chloro-N-[5-(cyanomethyl)-3-methoxypyridin-2-yl]-1H-indole-3-sulfonamide] | < 3.16 | < 3.16
O=S(=O)(Nc1cc(OC(F)F)c(Cl)cc1F)c1c[nH]c2cc(Cl)ccc12 [Compound I-195, 6-chloro-N-[4-chloro-5-(difluoromethoxy)-2-fluorophenyl]-1H-indole-3-sulfonamide] | 3.16 to 31.6 | < 3.16
O=S(=O)(Nc1cc(F)c(Cl)cc1F)c1coc2cc(Cl)ccc12 [Compound I-198, 6-chloro-N-(4-chloro-2,5-difluorophenyl)-1-benzofuran-3-sulfonamide] | 3.16 to 31.6 | 3.16 to 31.6
O=S(=O)(Nc1nc(F)c(Cl)cc1F)c1c[nH]c2cc(Cl)ccc12 [Compound I-199, 6-chloro-N-(5-chloro-3,6-difluoropyridin-2-yl)-1H-indole-3-sulfonamide] | 3.16 to 31.6 | < 3.16
O=S(=O)(Nc1nc(F)ccc1F)c1c[nH]c2cc(Cl)ccc12 [Compound I-200, 6-chloro-N-(3,6-difluoropyridin-2-yl)-1H-indole-3-sulfonamide] | 3.16 to 31.6 | 3.16 to 31.6
O=S(=O)(Nc1ccc2nonc2c1)c1c[nH]c2cc(Cl)ccc12 [Compound I-201, N-(2,1,3-benzoxadiazol-5-yl)-6-chloro-1H-indole-3-sulfonamide] | > 31.6 | < 3.16
O=S(=O)(Nc1ncc(Cl)cc1F)c1c[nH]c2cc(Cl)ccc12 [Compound I-202, 6-chloro-N-(5-chloro-3-fluoropyridin-2-yl)-1H-indole-3-sulfonamide] | < 3.16 | 3.16 to 31.6

Now from value to compound:

IC50 (GPR17 [1]) [nM] | Kb (GPR17 [2]) [nM] | Structure (SMILES)
< 3.16 | < 3.16 | N#Cc1cc(F)c(NS(=O)(=O)c2c[nH]c3c2ccc2ccccc23)cc1F [Compound I-151, N-(4-cyano-2,5-difluorophenyl)-1H-benzo[g]indole-3-sulfonamide]
< 3.16 | < 3.16 | N#Cc1ccc(NS(=O)(=O)c2c[nH]c3c2ccc2ccccc23)c(F)c1 [Compound I-152, N-(4-cyano-2-fluorophenyl)-1H-benzo[g]indole-3-sulfonamide]
< 3.16 | 3.16 to 31.6 | N#Cc1cc(F)c(NS(=O)(=O)c2c[nH]c3cc(OCc4ccccc4)ccc23)cc1F [Compound I-153, 6-(benzyloxy)-N-(4-cyano-2,5-difluorophenyl)-1H-indole-3-sulfonamide]
< 3.16 | 3.16 to 31.6 | N#Cc1ccc(NS(=O)(=O)c2c[nH]c3cc(OCc4ccccc4)ccc23)c(F)c1 [Compound I-154, 6-(benzyloxy)-N-(4-cyano-2-fluorophenyl)-1H-indole-3-sulfonamide]
< 3.16 | 3.16 to 31.6 | O=S(=O)(Nc1cc2nsnc2cc1F)c1c[nH]c2c1ccc1ccccc12 [Compound I-160, N-(6-fluoro-2,1,3-benzothiadiazol-5-yl)-1H-benzo[g]indole-3-sulfonamide]
< 3.16 | < 3.16 | CC(C)c1ccc2c(S(=O)(=O)Nc3ccc(C#N)cc3F)c[nH]c2c1 [Compound I-170, N-(4-cyano-2-fluorophenyl)-6-(propan-2-yl)-1H-indole-3-sulfonamide]
3.16 to 31.6 | 3.16 to 31.6 | Cc1ccc2c(S(=O)(=O)Nc3ccc(Cl)cc3F)c[nH]c2c1 [Compound I-174, N-(4-chloro-2-fluorophenyl)-6-methyl-1H-indole-3-sulfonamide]
> 31.6 | 3.16 to 31.6 | COc1cc(Cl)c(F)cc1NS(=O)(=O)c1c[nH]c2c1ccc1ccccc12 [Compound I-175, N-(4-chloro-5-fluoro-2-methoxyphenyl)-1H-benzo[g]indole-3-sulfonamide]
< 3.16 | 3.16 to 31.6 | N#Cc1cc(F)c(NS(=O)(=O)c2c[nH]c3cc(Cl)ccc23)c(F)c1 [Compound I-182, 6-chloro-N-(4-cyano-2,6-difluorophenyl)-1H-indole-3-sulfonamide]
< 3.16 | < 3.16 | N#Cc1cc(F)c(NS(=O)(=O)c2c[nH]c3cc(C(F)(F)F)ccc23)cc1F [Compound I-184, N-(4-cyano-2,5-difluorophenyl)-6-(trifluoromethyl)-1H-indole-3-sulfonamide]
< 3.16 | < 3.16 | N#Cc1cc(F)c(NS(=O)(=O)c2c[nH]c3cc(Cl)ccc23)cc1F [Compound I-185, 6-chloro-N-(4-cyano-2,5-difluorophenyl)-1H-indole-3-sulfonamide]
< 3.16 | < 3.16 | N#Cc1cc(F)c(NS(=O)(=O)c2c[nH]c3cc(Br)ccc23)cc1F [Compound I-188, 6-bromo-N-(4-cyano-2,5-difluorophenyl)-1H-indole-3-sulfonamide]
< 3.16 | < 3.16 | N#Cc1ccc(NS(=O)(=O)c2c[nH]c3cc(C(F)(F)F)ccc23)c(F)c1 [Compound I-189, N-(4-cyano-2-fluorophenyl)-6-(trifluoromethyl)-1H-indole-3-sulfonamide]
3.16 to 31.6 | < 3.16 | O=S(=O)(Nc1cc(F)c(F)cc1F)c1c[nH]c2cc(Cl)ccc12 [Compound I-203, 6-chloro-N-(2,4,5-trifluorophenyl)-1H-indole-3-sulfonamide]
3.16 to 31.6 | < 3.16 | O=S(=O)(Nc1cc(F)c(Cl)cc1F)c1c[nH]c2cc(Cl)ccc12 [Compound I-204, 6-chloro-N-(4-chloro-2,5-difluorophenyl)-1H-indole-3-sulfonamide]
3.16 to 31.6 | < 3.16 | N#CCc1ccc(NS(=O)(=O)c2c[nH]c3cc(Cl)ccc23)c(F)c1 [Compound I-206, 6-chloro-N-[4-(cyanomethyl)-2-fluorophenyl]-1H-indole-3-sulfonamide]
> 31.6 | 3.16 to 31.6 | COc1cc(Cl)c(F)cc1NS(=O)(=O)c1c[nH]c2cc(Cl)ccc12 [Compound I-208, 6-chloro-N-(4-chloro-5-fluoro-2-methoxyphenyl)-1H-indole-3-sulfonamide]
3.16 to 31.6 | < 3.16 | C#Cc1ccc(NS(=O)(=O)c2c[nH]c3cc(Cl)ccc23)c(F)c1 [Compound I-210, 6-chloro-N-(4-ethynyl-2-fluorophenyl)-1H-indole-3-sulfonamide]
